Literature values as cited in patent publication US20180015164A1, “A Composition Containing Protective Agent for Singlet Oxygen and A Preparation Method therefor” (Nanjing University, priority 2016, published 2018).

Conditions: in the named solution (solvent / protective agent)

Compound | lifetime of singlet oxygen [μs]
FC(F)(F)C(F)(F)C(F)(F)C(F)(F)C(F)(F)C(F)(F)F [perfluorohexane] | 600±200
CCCCCC [hexane] | 17
CO [methyl alcohol] | 7
CCO [ethyl alcohol] | 12
FC(Cl)(Cl)Cl [Freon 11] | 1000±200
[2H]O[2H] [deuteroxide] | 20
ClC(Cl)Cl [chloroform] | 60±15
O [water] | 2
S=C=S [carbon disulfide] | 200±60
